Experimental data from patent publication US20060069132A1, “Azolecarboxamide herbicides” (priority 2004, published 2006).
Read-outs that look alike come from different tables or passages of the source.

Key:
large crabgrass = test: Test B pre-/postemergence herbicide test; assay type: in vivo, Digitaria sanguinalis; conditions: Digitaria sanguinalis; for pest or weed control at 125 g/ha: 125 g ai/ha; for pest or weed control at 500 g/ha: 500 g ai/ha
Procedure, shortened: (§1)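 Herbicidal effect was judged by eye on a 0–100 scale after plants stood 13 to 15 days in the greenhouse following pre- or postemergence treatment with surfactant-containing formulations.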

giant foxtail = test: Test B pre-/postemergence herbicide test; assay type: in vivo, Setaria faberi; conditions: Setaria faberi, 336 h; for pest or weed control at 125 g/ha: 125 g ai/ha; for pest or weed control at 500 g/ha: 500 g ai/ha
Procedure, shortened: as §1

corn = test: Test B pre-/postemergence herbicide test; assay type: in vivo, Zea mays; conditions: Zea mays
Procedure, shortened: as §1

velvetleaf = test: Test B pre-/postemergence herbicide test; assay type: in vivo, Abutilon theophrasti; conditions: Abutilon theophrasti, 336 h; for pest or weed control at 125 g/ha: 125 g ai/ha; for pest or weed control at 500 g/ha: 500 g ai/ha
Procedure, shortened: as §1

pigweed = test: Test B pre-/postemergence herbicide test; assay type: in vivo, Amaranthus retroflexus; conditions: Amaranthus retroflexus, 336 h; for pest or weed control at 125 g/ha: 125 g ai/ha; for pest or weed control at 500 g/ha: 500 g ai/ha
Procedure, shortened: as §1

barnyardgrass = test: Test B flooded paddy test; assay type: in vivo, Echinochloa crus-galli; conditions: Echinochloa crus-galli, 336 h, 1000 g ai/ha, visual rating, scale 0 to 100 (0 no effect, 100 complete control), 13 to 15 days, read-out: Barnyardgrass plant response rating
Procedure, shortened: (§2)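 Greenhouse test; postemergence application to plants at 1–4 leaves (2–18 cm); paddy species at 2 leaves; evaluated visually vs controls at 13–15 days; scale 0–100 (100 = complete control).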

rice = test: Test B flooded paddy test; assay type: in vivo, Oryza sativa; conditions: Oryza sativa, 336 h, 1000 g ai/ha, visual rating, scale 0 to 100 (0 no effect, 100 complete control), 13 to 15 days, read-out: Rice plant response rating
Procedure, shortened: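 Treated at 2-leaf (paddy) or 1–4-leaf, 2–18 cm (postemergence); greenhouse 13–15 d; visual score vs control, 0 none to 100 complete control; dash = not tested.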

Surinam grass = test: Test B pre-/postemergence herbicide test; assay type: in vivo, Urochloa decumbens; conditions: Urochloa decumbens; for pest or weed control at 125 g/ha: 125 g ai/ha; for pest or weed control at 500 g/ha: 500 g ai/ha
Procedure, shortened: as §1

lambsquarters = test: Test B pre-/postemergence herbicide test; assay type: in vivo, Chenopodium album; conditions: Chenopodium album, 336 h; for pest or weed control at 125 g/ha: 125 g ai/ha; for pest or weed control at 500 g/ha: 500 g ai/ha
Procedure, shortened: as §1

morningglory = test: Test B pre-/postemergence herbicide test; assay type: in vivo, Ipomoea coccinea; conditions: Ipomoea, 336 h; for pest or weed control at 125 g/ha: 125 g ai/ha; for pest or weed control at 500 g/ha: 500 g ai/ha
Procedure, shortened: (§3)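 Greenhouse pot assay with simultaneous preemergence (treated seed) and postemergence (2–18 cm seedlings) applications of surfactant-containing, non-phytotoxic solvent formulations. Response scored visually 13–15 days later on a 0–100 scale, 100 meaning complete control.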

blackgrass = test: Test B postemergence herbicide test; assay type: in vivo, Alopecurus myosuroides; conditions: Alopecurus myosuroides, post-emergence, 336 h, postemergence, visual rating, scale 0 (no effect) to 100 (complete control), read-out: Blackgrass plant response rating
Procedure, shortened: as §2

cocklebur = test: Test B pre-/postemergence herbicide test; assay type: in vivo, Xanthium strumarium; conditions: Xanthium strumarium; for pest or weed control at 125 g/ha: 125 g ai/ha; for pest or weed control at 500 g/ha: 500 g ai/ha
Procedure, shortened: as §3

wheat = test: Test B postemergence herbicide test; assay type: in vivo, Triticum aestivum; conditions: Triticum aestivum, post-emergence, 336 h, postemergence, 500 g ai/ha; visual rating, scale 0 (no effect) to 100 (complete control); read-out: Wheat plant response rating
Procedure, shortened: (§4)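 Read-out: visual comparison with controls, scored 0 to 100, where 100 means complete control and 0 no effect. Formulated chemicals were applied postemergence to plants 2–18 cm tall (1- to 4-leaf), or to flooded-paddy plants at the 2-leaf stage, then held 13 to 15 days under glass.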

wild oat = test: Test B postemergence herbicide test; assay type: in vivo, Avena fatua; conditions: Avena fatua, post-emergence, 336 h, postemergence, visual rating, scale 0 (no effect) to 100 (complete control), read-out: Oat, Wild plant response rating
Procedure, shortened: as §4

[1] = system: small flower umbrella sedge; test: Test B flooded paddy test; assay type: in vivo, Cyperus difformis; conditions: Cyperus difformis, 336 h, 1000 g ai/ha, visual rating, scale 0 to 100 (0 no effect, 100 complete control), 13 to 15 days, read-out: Sedge, Umbrella plant response rating
Procedure, shortened: as §2

[2] = post-emergence, postemergence, visual rating, scale 0 (no effect) to 100 (complete control), read-out: Crabgrass, Large plant response rating
[3] = post-emergence, postemergence, visual rating, scale 0 (no effect) to 100 (complete control), read-out: Foxtail, Giant plant response rating
[4] = post-emergence, postemergence, visual rating, scale 0 (no effect) to 100 (complete control), read-out: Velvetleaf plant response rating
[5] = post-emergence, postemergence, visual rating, scale 0 (no effect) to 100 (complete control), read-out: Pigweed plant response rating
[6] = post-emergence, postemergence, visual rating, scale 0 (no effect) to 100 (complete control), read-out: Surinam Grass plant response rating
[7] = post-emergence, postemergence, visual rating, scale 0 (no effect) to 100 (complete control), read-out: Lambsquarters plant response rating
[8] = post-emergence, postemergence, visual rating, scale 0 (no effect) to 100 (complete control), read-out: Morningglory plant response rating
[9] = post-emergence, postemergence, visual rating, scale 0 (no effect) to 100 (complete control), read-out: Cocklebur plant response rating

## CCn1nc(C(C)(C)C)cc1C(=O)Nc1cc(C(=O)OC)ccn1 [Compound 151, methyl 2-[[[3-(1,1-dimethylethyl)-1-ethyl-1H-pyrazol-5-yl]carbonyl]amino]-4-pyridinecarboxylate]
Large crabgrass; [2]
  pest or weed control at 125 g/ha: 0%
  pest or weed control at 500 g/ha: 0%
Large crabgrass; pre-emergence, visual rating 0-100, 0 no effect, 100 complete control, read-out: Plant response rating, Crabgrass, Large
  pest or weed control at 500 g/ha: 10%
Large crabgrass; pre-emergence, preemergence, 0 to 100 scale, 0 is no effect, 100 is complete control, read-out: Plant response rating, Crabgrass, Large
  pest or weed control at 125 g/ha: 0%
Giant foxtail; [3]
  pest or weed control at 125 g/ha: 10%
  pest or weed control at 500 g/ha: 20%
Giant foxtail; pre-emergence, visual rating 0-100, 0 no effect, 100 complete control, read-out: Plant response rating, Foxtail, Giant
  pest or weed control at 500 g/ha: 10%
Giant foxtail; pre-emergence, preemergence, 0 to 100 scale, 0 is no effect, 100 is complete control, read-out: Plant response rating, Foxtail, Giant
  pest or weed control at 125 g/ha: 0%
corn; post-emergence, postemergence, 125 g ai/ha, visual rating, scale 0 (no effect) to 100 (complete control), read-out: Corn plant response rating
  plant injury at 125 g/ha: 10%
corn; post-emergence, postemergence, 500 g ai/ha, visual rating, scale 0 (no effect) to 100 (complete control), read-out: Corn plant response rating
  plant injury at 500 g/ha: 10%
corn; pre-emergence, 500 g ai/ha, visual rating 0-100, 0 no effect, 100 complete control
  Corn plant response rating (crop injury, 0 = no effect, 100 = complete kill) at 500 g/ha: 0%
corn; pre-emergence, preemergence, 125 g ai/ha, 0 to 100 scale, 0 is no effect, 100 is complete control
  Corn plant response rating (crop injury, 0 = no effect, 100 = complete kill) at 125 g/ha: 0%
velvetleaf; [4]
  pest or weed control at 125 g/ha: 10%
  pest or weed control at 500 g/ha: 20%
velvetleaf; pre-emergence, visual rating 0-100, 0 no effect, 100 complete control, read-out: Plant response rating, Velvetleaf
  pest or weed control at 500 g/ha: 0%
velvetleaf; pre-emergence, preemergence, 0 to 100 scale, 0 is no effect, 100 is complete control, read-out: Plant response rating, Velvetleaf
  pest or weed control at 125 g/ha: 0%
pigweed; [5]
  pest or weed control at 125 g/ha: 10%
  pest or weed control at 500 g/ha: 30%
pigweed; pre-emergence, visual rating 0-100, 0 no effect, 100 complete control, read-out: Plant response rating, Pigweed
  pest or weed control at 500 g/ha: 0%
pigweed; pre-emergence, preemergence, 0 to 100 scale, 0 is no effect, 100 is complete control, read-out: Plant response rating, Pigweed
  pest or weed control at 125 g/ha: 0%
barnyardgrass
  pest or weed control at 1000 g/ha: 0%
rice
  plant injury at 1000 g/ha: 0%
Surinam grass; [6]
  pest or weed control at 125 g/ha: 10%
  pest or weed control at 500 g/ha: 10%
Surinam grass; pre-emergence, visual rating 0-100, 0 no effect, 100 complete control, read-out: Plant response rating, Surinam Grass
  pest or weed control at 500 g/ha: 10%
Surinam grass; pre-emergence, preemergence, 0 to 100 scale, 0 is no effect, 100 is complete control, read-out: Plant response rating, Surinam Grass
  pest or weed control at 125 g/ha: 0%
lambsquarters; [7]
  pest or weed control at 125 g/ha: 0%
  pest or weed control at 500 g/ha: 50%
lambsquarters; pre-emergence, visual rating 0-100, 0 no effect, 100 complete control, read-out: Plant response rating, Lambsquarters
  pest or weed control at 500 g/ha: 0%
lambsquarters; pre-emergence, preemergence, 0 to 100 scale, 0 is no effect, 100 is complete control, read-out: Plant response rating, Lambsquarters
  pest or weed control at 125 g/ha: 0%
morningglory; [8]
  pest or weed control at 125 g/ha: 10%
  pest or weed control at 500 g/ha: 30%
morningglory; pre-emergence, visual rating 0-100, 0 no effect, 100 complete control, read-out: Plant response rating, Morningglory
  pest or weed control at 500 g/ha: 0%
morningglory; pre-emergence, preemergence, 0 to 100 scale, 0 is no effect, 100 is complete control, read-out: Plant response rating, Morningglory
  pest or weed control at 125 g/ha: 0%
blackgrass; 125 g ai/ha
  pest or weed control at 125 g/ha: 10%
blackgrass; 500 g ai/ha
  pest or weed control at 500 g/ha: 30%
cocklebur; [9]
  pest or weed control at 125 g/ha: 0%
  pest or weed control at 500 g/ha: 0%
cocklebur; pre-emergence, visual rating 0-100, 0 no effect, 100 complete control, read-out: Plant response rating, Cocklebur
  pest or weed control at 500 g/ha: 0%
cocklebur; pre-emergence, preemergence, 0 to 100 scale, 0 is no effect, 100 is complete control, read-out: Plant response rating, Cocklebur
  pest or weed control at 125 g/ha: 0%
wheat
  plant injury at 500 g/ha: 20%
Wild oat; 125 g ai/ha
  pest or weed control at 125 g/ha: 10%
Wild oat; 500 g ai/ha
  pest or weed control at 500 g/ha: 30%
[1]
  pest or weed control at 1000 g/ha: 60%
